Measurements as given in PubChem BioAssay (NCI).
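These data come from cells grown in 96-well plates and exposed to compound for 48 hours at five concentrations. GI50 is the concentration that inhibits growth by half. TGI: total growth inhibition.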

Tests used:
Test in all cases: DTP human tumour cell line panel, 48 h
A498 renal = test system: A498 renal
KM12 colon = test system: KM12 colon
MOLT-4 leukemia = test system: MOLT-4 leukemia
K-562 leukemia = test system: K-562 leukemia
EKVX NSCLC = test system: EKVX NSCLC
MDA-MB-231 breast = test system: MDA-MB-231 breast
SW-620 colon = test system: SW-620 colon
HL-60(TB) leukemia = test system: HL-60(TB) leukemia
SN12C renal = test system: SN12C renal
IGROV1 ovarian = test system: IGROV1 ovarian

| Compound | GI50 (A498 renal) [µM] | TGI (A498 renal) [µM] | GI50 (KM12 colon) [µM] | TGI (KM12 colon) [µM] | GI50 (MOLT-4 leukemia) [µM] | TGI (MOLT-4 leukemia) [µM] | GI50 (K-562 leukemia) [µM] | TGI (K-562 leukemia) [µM] | GI50 (EKVX NSCLC) [µM] | TGI (EKVX NSCLC) [µM] | GI50 (MDA-MB-231 breast) [µM] | TGI (MDA-MB-231 breast) [µM] | GI50 (SW-620 colon) [µM] | TGI (SW-620 colon) [µM] | GI50 (HL-60(TB) leukemia) [µM] | TGI (HL-60(TB) leukemia) [µM] | GI50 (SN12C renal) [µM] | TGI (SN12C renal) [µM] | GI50 (IGROV1 ovarian) [µM] | TGI (IGROV1 ovarian) [µM] |
| --- | --- | --- | --- | --- | --- | --- | --- | --- | --- | --- | --- | --- | --- | --- | --- | --- | --- | --- | --- | --- |
| COc1ccc2c(c1)N(CCO)C1=C(C(=O)OC1)C2c1cccc(Br)c1 (stereo unspecified) | 0.0293 | 1.21 | 0.0489 | 5.05 | 0.458 | > 100 | 0.0532 | > 67.6 | 0.694 | > 100 | 0.372 | 19.4 | 0.046 | > 100 | 0.0671 | 0.601 | 0.45 | > 88.1 | 0.088 | > 100 |
| COc1ccc(C2SC(C)C(=O)N2NC(=O)C(O)c2ccccc2)cc1 (stereo unspecified) | > 100 | > 100 | > 100 | > 100 | > 100 | > 100 | > 100 | > 100 | > 100 | > 100 | > 100 | > 100 | > 100 | > 100 | > 100 | > 100 | > 100 | > 100 | > 100 | > 100 |
| CN(C)CCOc1cccc(NC2=C(Cl)C(=O)C(Nc3cccc(OCCN(C)C)c3)=C(Cl)C2=O)c1 | 1.64 | 3.26 | 1.33 | 2.92 | 0.255 | 0.844 | 0.162 | 0.608 | 0.794 | 2.13 | 0.54 | 1.17 | 0.207 | 0.438 | 0.751 | 2.61 | 0.427 | 0.886 | 0.235 | 0.663 |
| O=C(O)C#Cc1ccc([N+](=O)[O-])cc1 | – | > 100 | – | > 100 | – | > 100 | – | > 100 | – | > 100 | – | > 100 | – | > 100 | – | > 100 | – | > 100 | – | > 100 |
| CCCNNC(=O)c1ccc(CNC(=O)/C=C/c2ccccc2)cc1 | 0.123 | 0.36 | 0.232 | 5.05 | 0.106 | > 100 | 0.0732 | > 100 | 0.311 | > 100 | 0.348 | > 100 | 0.125 | 1.06 | 0.219 | > 100 | 0.313 | > 100 | 0.185 | 1.1 |
| O=S(=O)(c1ccccc1)C1CN(Cc2ccccc2)CCN(Cc2ccccc2)C1 | – | > 100 | – | > 100 | – | > 100 | – | > 100 | – | > 100 | – | > 100 | – | > 78.7 | – | 34.4 | – | > 100 | – | > 100 |
| Nc1nn(C(=O)Nc2ccc(Cc3ccccc3)cc2)c2ccccc12 | 16.7 | 31.5 | 2.94 | > 100 | 0.636 | 20.4 | 1.2 | 33.8 | 11.2 | 92 | 0.847 | 43.9 | 3.62 | 41.5 | 0.466 | 15.2 | 12.9 | 28 | 6.98 | 48.8 |
| C(#Cc1ccccc1C#Cc1ccccn1)c1ccc(OCCCCCCOc2ccc(C#Cc3ccccc3C#Cc3ccccn3)cc2)cc1 | 5.93 | 12.1 | 1.65 | 8.34 | 0.225 | 5.41 | 1.81 | 18.5 | 5.09 | 22.9 | 2.47 | 9.64 | 4.51 | 10.6 | 0.108 | 1.44 | 2.35 | 11.6 | 5.63 | 17.2 |
| Cc1cc(Cl)ccc1Nc1nc(C(F)(F)F)ccc1C(=O)N/N=C/c1ccc(F)cc1 | 1.48 | 5.92 | 1.99 | 5.33 | 1.6 | 4.98 | 1.89 | 6.05 | 1.13 | 8.17 | 1.47 | 5.94 | 2.06 | 13.5 | 1.77 | 5.01 | 2.56 | 11.4 | 2.11 | 13.9 |
| CCN(CC)CCCC(C)Nc1ccnc2cc(Cl)c(SCc3ccccc3)cc12 (stereo unspecified) | 1.22 | 2.68 | 1.43 | 3.96 | 0.623 | 4.14 | 0.266 | 0.702 | 1.93 | 6.75 | 1.27 | 2.9 | 0.928 | 2.92 | 1.81 | 4.23 | 1.7 | 4.07 | 1.81 | 4.95 |
| O=C1C=CC(=O)N1CCCCCCCCCCN1C(=O)C=CC1=O | 20 | 49.7 | 15.4 | 30.3 | 8.62 | 48.6 | 7.63 | 67.9 | 19.4 | 39.2 | 15.7 | 29.5 | 2.42 | 6.09 | 8.72 | 31.4 | 15.1 | 29.5 | 7.89 | 24.7 |
| N=C1N=Nc2nc(C3(c4nc5n(c4O)C(=N)N=N5)Cc4ccccc4C3=O)c(O)n21 (stereo unspecified) | – | > 43.9 | – | > 100 | – | > 100 | – | > 100 | – | > 100 | – | > 100 | – | > 100 | – | > 100 | – | > 100 | 63.7 | > 100 |
| O=C(Nc1cccc2ccccc12)c1cc2ccccc2cc1O | 1.03 | 3.91 | 2.73 | 8.01 | 3.08 | 21.5 | 1.95 | 23.4 | 1.77 | 6.18 | 1.77 | 4.46 | 2.91 | 15 | 2.37 | 8.22 | 2.4 | 9.97 | 1.46 | 7.27 |
